Results reported in patent US20250287944A1, “AMINOETHOXYVINYLGLYCINE AND 1-AMINO-1-CYCLOPROPANECARBOXYLIC ACID AND USES THEREOF” (Valent BioSciences LLC, priority 2024, published 2025).

Tests used:
Type in all cases: in vivo
[1] = test system: apples, Cripps Pink variety; experiment: Apple coloration in Cripps Pink variety (blush classes); conditions: 34 hours post spray; for % Cripps Red: apples with a blush from 20% to 40%; for % Pink Lady: apples with a blush of greater than 40%; for % Class 3: apples with a blush of less than 20%
Description: 10 sets of unripened apples, Cripps Pink variety, harvested three weeks before the normal harvest date, were each foliar sprayed with either 1) 0.05% Regulaid® as a control, 2) 125 ppm ACC, 3) 250 ppm ACC, 4) 500 ppm ACC, 5) 125 ppm AVG, 6) 125 ppm ACC and 125 ppm AVG, 7) 250 ppm ACC and 125 ppm AVG or 8) 500 ppm ACC and 125 ppm AVG. 34 hours post spray application percent red pixel area (shaded) was measured. Pink Lady denotes apples with a blush of greater than 40%, Cripps Red denotes apples with a blush from 20% to 40% and Class 3 denotes apples with a blush of less than 20%.

[2] = test system: apples, Cripps Pink variety; experiment: Apple greasiness in Cripps Pink variety; conditions: 12 weeks of cold storage and 7 days at room temperature
Description: 10 sets of unripened apples, Cripps Pink variety, harvested three weeks before the normal harvest date, were each foliar sprayed with either 1) 0.05% Regulaid® as a control, 2) 125 ppm ACC, 3) 250 ppm ACC, 4) 500 ppm ACC, 5) 125 ppm AVG, 6) 125 ppm ACC and 125 ppm AVG, 7) 250 ppm ACC and 125 ppm AVG or 8) 500 ppm ACC and 125 ppm AVG. Following 12 weeks of cold storage and 7 days at room temperature greasiness was measured.

[3] = test system: apples, Cripps Pink variety; experiment: Apple characteristics in Cripps Pink variety (red pixel area, ground color, firmness, starch conversion, brix); set-up: Ground Color / Starch: scale not given here; Firmness: unit not given here; conditions: 34 hours post spray; for Average % Red Pixel Area: shaded; for Starch: starch conversion
Description: 10 sets of unripened apples, Cripps Pink variety, harvested three weeks before the normal harvest date, were each foliar sprayed with either 1) 0.05% Regulaid® as a control, 2) 125 ppm ACC, 3) 250 ppm ACC, 4) 500 ppm ACC, 5) 125 ppm AVG, 6) 125 ppm ACC and 125 ppm AVG, 7) 250 ppm ACC and 125 ppm AVG or 8) 500 ppm ACC and 125 ppm AVG. 34 hours post spray application percent red pixel area (shaded), ground color, fruit firmness, starch conversion and brix were measured.

[4] = test system: apple trees with mature apples of the Cripps Pink variety; experiment: Fruit drop in Cripps Pink variety
From the text: AVG and/or ACC were applied to apple trees with mature apples of the Cripps Pink variety, wherein each set of trees were foliar sprayed with either 1) 0.05% Regulaid® as a control, 2) 125 ppm ACC, 3) 250 ppm ACC, 4) 500 ppm ACC, 5) 125 ppm AVG, 6) 125 ppm ACC and 125 ppm AVG, 7) 250 ppm ACC and 125 ppm AVG or 8) 500 ppm ACC and 125 ppm AVG.

[5] = harvest 1, 125 ppm foliar spray
[6] = harvest 1, 250 ppm foliar spray
[7] = harvest 1, 500 ppm foliar spray
[8] = harvest 2, 125 ppm foliar spray
[9] = harvest 2, 250 ppm foliar spray
[10] = harvest 2, 500 ppm foliar spray

NC1(C(=O)O)CC1 [ACC, 1-amino-1-cyclopropanecarboxylic acid]
% Cripps Red ([1]; 125 ppm foliar spray): 15% | % Cripps Red ([1]; 250 ppm foliar spray): 11.5% | % Cripps Red ([1]; 500 ppm foliar spray): 9% | % Pink Lady ([1]; 125 ppm foliar spray): 76.5% | % Pink Lady ([1]; 250 ppm foliar spray): 84.5% | % Pink Lady ([1]; 500 ppm foliar spray): 89% | % Class 3 ([1]; 125 ppm foliar spray): 8.5% | % Class 3 ([1]; 250 ppm foliar spray): 4% | % Class 3 ([1]; 500 ppm foliar spray): 2% | Percent Fruit with Moderate Greasiness [2, 5]: 40% | Percent Fruit with No Greasiness [2, 5]: 21% | Percent Fruit with Severe Greasiness [2, 5]: 17% | Percent Fruit with Slight Greasiness [2, 5]: 22% | Percent Fruit with Moderate Greasiness [2, 6]: 40% | Percent Fruit with No Greasiness [2, 6]: 5% | Percent Fruit with Severe Greasiness [2, 6]: 39% | Percent Fruit with Slight Greasiness [2, 6]: 16% | Percent Fruit with Moderate Greasiness [2, 7]: 44% | Percent Fruit with No Greasiness [2, 7]: 1% | Percent Fruit with Severe Greasiness [2, 7]: 48% | Percent Fruit with Slight Greasiness [2, 7]: 7% | Percent Fruit with Moderate Greasiness [2, 8]: 31.1% | Percent Fruit with No Greasiness [2, 8]: 0% | Percent Fruit with Severe Greasiness [2, 8]: 68.9% | Percent Fruit with Slight Greasiness [2, 8]: 0% | Percent Fruit with Moderate Greasiness [2, 9]: 15% | Percent Fruit with No Greasiness [2, 9]: 0% | Percent Fruit with Severe Greasiness [2, 9]: 85% | Percent Fruit with Slight Greasiness [2, 9]: 0% | Percent Fruit with Moderate Greasiness [2, 10]: 19% | Percent Fruit with No Greasiness [2, 10]: 0% | Percent Fruit with Severe Greasiness [2, 10]: 81% | Percent Fruit with Slight Greasiness [2, 10]: 0% | Brix ([3]; 125 ppm foliar spray): 12.25 | Firmness ([3]; 125 ppm foliar spray): 8.61 | Ground Color ([3]; 125 ppm foliar spray): 3.01 | Average % Red Pixel Area ([3]; 125 ppm foliar spray): 6.9% | Brix ([3]; 250 ppm foliar spray): 12.5 | Firmness ([3]; 250 ppm foliar spray): 8.58 | Ground Color ([3]; 250 ppm foliar spray): 2.96 | Average % Red Pixel Area ([3]; 250 ppm foliar spray): 8% | Brix ([3]; 500 ppm foliar spray): 12.51 | Firmness ([3]; 500 ppm foliar spray): 8.4 | Ground Color ([3]; 500 ppm foliar spray): 3.04 | Average % Red Pixel Area ([3]; 500 ppm foliar spray): 8.7% | Starch ([3]; 125 ppm foliar spray): 40 | Starch ([3]; 250 ppm foliar spray): 45.3 | Starch ([3]; 500 ppm foliar spray): 56.2 | # of Fruit Dropped (Evaluation 1) ([4]; 125 ppm foliar spray to trees): 11.3 c | # of Fruit Dropped (Evaluation 2) ([4]; 125 ppm foliar spray to trees): 10.4 bc | Total # of Fruit Dropped ([4]; 125 ppm foliar spray to trees): 26.3 c | # of Fruit Dropped (Evaluation 1) ([4]; 250 ppm foliar spray to trees): 15.2 c | # of Fruit Dropped (Evaluation 2) ([4]; 250 ppm foliar spray to trees): 16.4 b | Total # of Fruit Dropped ([4]; 250 ppm foliar spray to trees): 35.2 bc | # of Fruit Dropped (Evaluation 1) ([4]; 500 ppm foliar spray to trees): 59.7 a | # of Fruit Dropped (Evaluation 2) ([4]; 500 ppm foliar spray to trees): 40.1 a | Total # of Fruit Dropped ([4]; 500 ppm foliar spray to trees): 105.8 a

NCCO/C=C/[C@H](N)C(=O)O [AVG, ([S]-trans-2-amino-4-(2-aminoethoxy)-3-butenoic acid]
% Cripps Red ([1]; 125 ppm foliar spray): 21.5% | % Pink Lady ([1]; 125 ppm foliar spray): 69.5% | % Class 3 ([1]; 125 ppm foliar spray): 9% | Percent Fruit with Moderate Greasiness [2, 5]: 1% | Percent Fruit with No Greasiness [2, 5]: 94% | Percent Fruit with Severe Greasiness [2, 5]: 0% | Percent Fruit with Slight Greasiness [2, 5]: 5% | Percent Fruit with Moderate Greasiness [2, 8]: 49% | Percent Fruit with No Greasiness [2, 8]: 22% | Percent Fruit with Severe Greasiness [2, 8]: 2% | Percent Fruit with Slight Greasiness [2, 8]: 27% | Brix ([3]; 125 ppm foliar spray): 12.33 | Firmness ([3]; 125 ppm foliar spray): 8.62 | Ground Color ([3]; 125 ppm foliar spray): 2.93 | Average % Red Pixel Area ([3]; 125 ppm foliar spray): 6.3% | Starch ([3]; 125 ppm foliar spray): 25.9 | # of Fruit Dropped (Evaluation 1) ([4]; 125 ppm foliar spray to trees): 9.7 c | # of Fruit Dropped (Evaluation 2) ([4]; 125 ppm foliar spray to trees): 7.4 c | Total # of Fruit Dropped ([4]; 125 ppm foliar spray to trees): 20.8 c
